Reference: US8912216B2, “Hetaryl-[1,8]naphthyridine derivatives” (Merck Patent GmbH, priority 2010, dated 2014)
Where a name gives a salt, the structure may show the parent alone. Read-outs that look alike come from different tables or passages of the source.

Columns and labels:
[1] = biological target: T1, GST-ALK5 (Homo sapiens, UniProt P36897); assay: In-vitro (enzyme) kinase assay, 384-well flashplate (Example 36); format: biochemical; settings: GST-ALK5, GST-SMAD2 substrate, 3 mM ATP, 30° C., 45 min; read-out: TβR activity (Example 36)
T1 sequence (P36897 34-503): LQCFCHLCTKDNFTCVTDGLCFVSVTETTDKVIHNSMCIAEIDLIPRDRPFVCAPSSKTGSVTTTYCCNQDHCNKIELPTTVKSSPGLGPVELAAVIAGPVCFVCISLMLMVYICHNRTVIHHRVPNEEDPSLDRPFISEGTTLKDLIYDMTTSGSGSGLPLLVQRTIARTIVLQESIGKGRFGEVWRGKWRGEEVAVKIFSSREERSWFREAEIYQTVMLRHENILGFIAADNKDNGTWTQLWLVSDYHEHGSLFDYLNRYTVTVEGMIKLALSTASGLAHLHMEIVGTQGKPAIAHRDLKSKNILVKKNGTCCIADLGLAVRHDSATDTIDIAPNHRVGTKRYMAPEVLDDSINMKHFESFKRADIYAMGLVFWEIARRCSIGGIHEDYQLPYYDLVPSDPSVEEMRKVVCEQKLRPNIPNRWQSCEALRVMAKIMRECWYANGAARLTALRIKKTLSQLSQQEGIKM
Experimental: In-vitro (Enzyme) Assay for Determination of the Efficacy of Inhibitors of the Inhibition of TGF-beta-Mediated Effects
The kinase assay was carried out as 384-well flashplate assay. 31.2 nM of GST-ALK5, 439 nM of GST-SMAD2 and 3 mM of ATP (with 0.3 μCi of ^33P-ATP/well) were incubated in a total volume of 35 μl (20 mM of HEPES, 10 mM of MgCl2, 5 mM of MnCl2, 1 mM of DTT, 0.1 of BSA, pH 7.4) without or with test substance (5-10 concentrations) at 30° C. for 45 min. The reaction was stopped using 25 μl of 200 mM EDTA solution, filtered with suction at room temperature after 30 min, and the wells were washed with 3 times 100 μl of 0.9% NaCl solution. Radioactivity was measured in the TopCount. The IC50 values were calculated using RS1.

[2] = tested on: TGF-beta-induced phosphorylation of Smad2 and Smad3 in Mv1-Lu cells; assay: Inhibition of Smad2/3 phosphorylation in Mv1Lu cells (Example 35A); format: cell-based, mink Mustela vison; settings: Neogale vison, read-out: TβR activity (Example 35A)
Experimental: Inhibition of Smad2/3 Phosphorylation in Mv1Lu Cells by TGF-bta Receptor I Kinase Inhibitors
This assay was used to determine the inhibitory potency of compounds on TGF-beta-induced phosphorylation of Smad2 (Ser465/467) and Smad3 (Ser423/425). Mv1-Lu cells (lung epithelial cell line from mink Mustela vison; ATCC number: CCL-64) were seeded in DMEM (Invitrogen) supplemented with 10% fetal bovine serum (Pan Biotech) at a defined cell density in 24-well or 96-well plates (24-well plate: 1.5×10^5 cells per well; 96-well plate: 4×10^4 cells per well). Cell cultures were incubated in DMEM at 37° C. and 10% CO2. On the next day, the medium was replaced and cells were serum-starved for 16-20 hours. The following day, serial dilutions of compounds were added to the wells, pre-incubated for 1.5 hrs before recombinant TGF-beta 1 ligand (final concentration 5 ng/ml; R&D systems) was added. After one hour of ligand stimulation, lysates were prepared and analyzed using an enzyme-linked immunosorbent assay kit (PathScan Phospho-Smad2 Kit, Cell Signaling Technologies). The ELISA detects phosphorylated Smad2 as well as phosphorylated Smad3 with the phospho-specific antibody. TGF-beta stimulated cells and unstimulated cells served as positive and negative controls (100% and background control). The concentration of the vehicle DMSO was kept constant at 0.2% (v/v) in all wells. Dose-response relationships were fitted using curve fitting algorithms of the RS1 statistics software package (Brooks Automation Inc. RS/1—Statistical Tools Handbook. Release 6.2) to determine the concentration at which half-maximal inhibition (IC50) of Smad2/3 phosphorylation was achieved.

[3] = Mv1-Lu cells, TGF-beta 1 5 ng/ml, phospho-Smad2/3 ELISA

SMILES | IC50 [1] [nM] | IC50 [2, 3] [nM] | IC50 [2] [nM]
NCCc1ccccc1-c1cncc(-c2cc(-c3cc(Cl)ccc3F)nc3ncccc23)c1 [compound 152, 2-(2-{5-[2-(5-Chloro-2-fluoro-phenyl)-[1,8]naphthyridin-4-yl]-pyridin-3-yl}-phenyl)-ethylamine] | 1000 to 10000 | 1000 to 10000 | 
Fc1ccc(Cl)cc1-c1cc(-c2cncc(-c3ccc4c(c3)CCN4)c2)c2cccnc2n1 [compound 154, 2-(5-Chloro-2-fluoro-phenyl)-4-[5-(2,3-dihydro-1H-indol-5-yl)-pyridin-3-yl]-[1,8]naphthyridine] | 100 to 1000 | 1000 to 10000 | 
CN1CC[C@@H](n2cc(-c3cncc(-c4cc(-c5ccccc5F)nc5ncccc45)c3)cn2)C1 [compound 64, 2-(2-Fluoro-phenyl)-4-{5-[1-((R)-1-methyl-pyrrolidin-3-yl)-1H-pyrazol-4-yl]-pyridin-3-yl}-[1,8]naphthyridine] | < 100 | < 100 | 
Fc1ccccc1-c1cc(-c2cncc(-c3ccc(N4CCNCC4)nc3)n2)c2cccnc2n1 [compound 81, 2-(2-Fluoro-phenyl)-4-[6-(6-piperazin-1-yl-pyridin-3-yl)-pyrazin-2-yl]-[1,8]naphthyridine] | < 100 | 100 to 1000 | 
Cn1cc(-c2cc(-c3cc(-c4cc(Cl)ccc4F)nc4ncccc34)cnc2N)cn1 [compound 31, 5-[2-(5-chloro-2-fluoro-phenyl)-[1,8]naphthyridin-4-yl]-3-(1-methyl-1H-pyrazol-4-yl)-pyridin-2-ylamine] | 1000 to 10000 | > 10000 | 
Fc1ccc(Cl)cc1-c1cc(-c2cncc(-c3ccc4c(c3)OCCO4)c2)c2cccnc2n1 [compound 134, 2-(5-Chloro-2-fluoro-phenyl)-4-[5-(2,3-dihydro-benzo[1,4]dioxin-6-yl)-pyridin-3-yl]-[1,8]naphthyridine] | 100 to 1000 | < 100 | 
CN1CCN(c2ccc(-c3cnnc(-c4cc(-c5cc(Cl)ccc5F)nc5ncccc45)c3)cc2)CC1 [compound 130, 2-(5-Chloro-2-fluoro-phenyl)-4-{5-[4-(4-methyl-piperazin-1-yl)-phenyl]-pyridazin-3-yl}-[1,8]naphthyridine] | 1000 to 10000 | 1000 to 10000 | 
Fc1ccc(Cl)cc1-c1cc(-c2cncc(-c3cccc(-n4ccnc4)n3)c2)c2cccnc2n1 [compound 110, 2-(5-Chloro-2-fluoro-phenyl)-4-(6-imidazol-1-yl-[2,3′]bipyridinyl-5′-yl)-[1,8]naphthyridine] | > 10000 | > 10000 | 
CC(C)(C)OC(=O)Nc1cc(-c2cncc(-c3cc(-c4cc(Cl)ccc4F)nc4ncccc34)c2)ccn1 [compound 112, {5-[2-(5-Chloro-2-fluoro-phenyl) [1,8]naphthyridin-4-yl]-[3,4′]bipyridinyl-2′-yl}-carbamic acid tert-butyl ester] | 100 to 1000 | 100 to 1000 | 
CN1CCN(c2ccc(-c3cncc(-c4cc(-c5cc(Cl)ccc5F)nc5ncccc45)c3)cn2)CC1 [compound 93, 2-(5-Chloro-2-fluoro-phenyl)-4-[6′-(4-methyl-piperazin-1-yl)-[3,3′]bipyridinyl-5-yl]-[1,8]naphthyridine] | < 100 | < 100 | 
Fc1ccc(Cl)cc1-c1cc(-c2cncc(-c3ccc(OCCN4CCOCC4)cc3)c2)c2cccnc2n1 [compound 161, 2-(5-Chloro-2-fluoro-phenyl)-4-{5-[4-(2-morpholin-4-yl-ethoxy)-phenyl]-pyridin-3-yl}-[1,8]naphthyridine] | < 100 | < 100 | 
CN1CCN(c2ccc(-c3cc(-c4cc(-c5cc(Cl)ccc5F)nc5ncccc45)cnn3)cc2)CC1 [compound 117, 2-(5-Chloro-2-fluoro-phenyl)-4-{6-[4-(4-methyl-piperazin-1-yl)-phenyl]-pyridazin-4-yl}-[1,8]naphthyridine] | 100 to 1000 | 100 to 1000 | 
OC/C=C/Cn1cc(-c2cncc(-c3cc(-c4ccccc4F)nc4ncccc34)c2)cn1 [compound 84] | < 100 | 100 to 1000 | 
NC(=O)COc1ccc(-c2cncc(-c3cc(-c4cc(Cl)ccc4F)nc4ncccc34)c2)cc1 [compound 138, 2-(4-{5-[2-(5-Chloro-2-fluoro-phenyl)-[1,8]naphthyridin-4-yl]-pyridin-3-yl}-phenoxy)-acetamide] | < 100 | 100 to 1000 | 
Nc1ncc(-c2cc(-c3cc(Cl)ccc3F)nc3ncccc23)c2ccncc12 [compound 167, 4-[2-(5-Chloro-2-fluoro-phenyl)-[1,8]naphthyridin-4-yl]-[2,7]naphthyridin-1-ylamine] | < 100 | < 100 | 
NS(=O)(=O)c1ccc(-c2cncc(-c3cc(-c4ccccc4F)nc4ncccc34)c2)cc1 [compound 78, 4-{5-[2-(2-Fluoro-phenyl)-[1,8]naphthyridin-4-yl]-pyridin-3-yl}-benzenesulfonamide] | < 100 | 100 to 1000 | 
CCN1CCc2ccc(-c3cncc(-c4cc(-c5cc(Cl)ccc5F)nc5ncccc45)c3)cc2C1 [compound 173, 2-(5-Chloro-2-fluoro-phenyl)-4-[5-(2-ethyl-1,2,3,4-tetrahydro-isoquinolin-7-yl)-pyridin-3-yl]-[1,8]naphthyridine] | < 100 | < 100 | 
CC(=O)N1CCc2cc(-c3cncc(-c4cc(-c5cc(Cl)ccc5F)nc5ncccc45)c3)ccc21 [compound 164, 1-(5-{5-[2-(5-Chloro-2-fluoro-phenyl)-[1,8]naphthyridin-4-yl]-pyridin-3-yl}-2,3-dihydro-indol-1-yl)-ethanone] | < 100 | < 100 | 
Fc1ccc(Cl)cc1-c1cc(-c2cncc(-c3cnn(C4CCNCC4)c3)c2)c2cccnc2n1 [compound 11, 2-(5-chloro-2-fluoro-phenyl)-4-[5-(1-piperidin-4-yl-1H-pyrazol-4-yl)-pyridin-3-yl]-[1,8]naphthyridine dihydrochloride] | < 100 |  | < 100
CN(C)CCCOc1ccc(-c2cncc(-c3cc(-c4cc(Cl)ccc4F)nc4ncccc34)c2)cc1 [compound 139, [3-(4-{5-[2-(5-Chloro-2-fluoro-phenyl)-[1,8]naphthyridin-4-yl]-pyridin-3-yl}-phenoxy)-propyl]-dimethyl-amine] | < 100 | < 100 | 
Fc1ccc(Cl)cc1-c1cc(-c2cncc(-c3ccc(N4CCNCC4)cc3)c2)c2cccnc2n1 [compound 94, 2-(5-Chloro-2-fluoro-phenyl)-4-[5-(4-piperazin-1-yl-phenyl)-pyridin-3-yl]-[1,8]naphthyridine] | < 100 | < 100 | 
CC1(C)CCNc2ccc(-c3cncc(-c4cc(-c5cc(Cl)ccc5F)nc5ncccc45)c3)cc21 [compound 146, 2-(5-Chloro-2-fluoro-phenyl)-4-[5-(4,4-dimethyl-1,2,3,4-tetrahydro-quinolin-6-yl)-pyridin-3-yl]-[1,8]naphthyridine] | 100 to 1000 | 100 to 1000 | 
Fc1ccc(Cl)cc1-c1cc(-c2cncc(-c3ccc4c(c3)CNC4)c2)c2cccnc2n1 [compound 175, 2-(5-Chloro-2-fluoro-phenyl)-4-[5-(2,3-dihydro-1H-isoindol-5-yl)-pyridin-3-yl]-[1,8]naphthyridine] | < 100 | < 100 | 
Fc1ccc(Cl)cc1-c1cc(-c2cncc(-c3cccc(C(F)(F)F)n3)c2)c2cccnc2n1 [compound 106, 2-(5-Chloro-2-fluoro-phenyl)-4-(6-trifluoromethyl-[2,3′]bipyridinyl-5′-yl)-[1,8]naphthyridine] | 100 to 1000 | > 10000 | 
